# Results published in patent US10597387B2, “Methods to treat lymphoplasmacytic lymphoma” (Dana-Farber Cancer Institute, Inc., priority 2013, dated 2020).
# Like-named read-outs stand apart in the source and are kept apart here.
# Assays:
# Experiment in all cases: KiNativ kinase profiling
# ACK = ACK (Homo sapiens (Human), UniProt Q07912); type: binding; conditions: Lys1, A375 cells, read-out: inhibition of kinase labeling
# BLK = BLK (Homo sapiens (Human), UniProt P51451); type: binding; conditions: Activation Loop, A375 cells, read-out: inhibition of kinase labeling
# BRAF = BRAF (Homo sapiens (Human), UniProt P15056, V600E); type: binding; conditions: Lys2, A375 cells, read-out: inhibition of kinase labeling
# CDK11, CDK8 = type: binding, Homo sapiens; conditions: Lys2, 1 μM, A375 cells
# CK1a = CK1a (Homo sapiens (Human), UniProt P48729); type: binding; conditions: Lys2, A375 cells, read-out: inhibition of kinase labeling
# CK1g1 = CK1g1 (Homo sapiens (Human), UniProt Q9HCP0); type: binding; conditions: Lys2, A375 cells, read-out: inhibition of kinase labeling
# DNAPK = DNAPK (Homo sapiens (Human), UniProt P78527); type: binding; conditions: ATP, A375 cells, read-out: inhibition of kinase labeling
# FER = FER (Homo sapiens (Human), UniProt P16591); type: binding; conditions: Lys1, A375 cells, read-out: inhibition of kinase labeling
# FYN, SRC, YES = type: binding, Homo sapiens; conditions: Activation Loop, 1 μM, A375 cells
# GCK = GCK (Homo sapiens (Human), UniProt Q12851); type: binding; conditions: Lys2, A375 cells, read-out: inhibition of kinase labeling
# GSK3B = GSK3B (Homo sapiens (Human), UniProt P49841); type: binding; conditions: Lys2, A375 cells, read-out: inhibition of kinase labeling
# IKKe = IKKe (Homo sapiens (Human), UniProt Q14164); type: binding; conditions: Lys1, A375 cells, read-out: inhibition of kinase labeling
# IKKe, TBK1 = type: binding, Homo sapiens; conditions: Lys2, 1 μM, A375 cells
# ILK = ILK (Homo sapiens (Human), UniProt Q13418); type: binding; conditions: Protein Kinase Domain, A375 cells, read-out: inhibition of kinase labeling
# JAK1 domain2 = JAK1 domain2 (Homo sapiens (Human), UniProt P23458); type: binding; conditions: Lys1, A375 cells, read-out: inhibition of kinase labeling
# JNK1, JNK2, JNK3 = type: binding, Homo sapiens; conditions: Lys2, 1 μM, A375 cells
# LCK = LCK (Homo sapiens (Human), UniProt P06239); type: binding; conditions: Activation Loop, A375 cells, read-out: inhibition of kinase labeling
# LYN = LYN (Homo sapiens (Human), UniProt P07948); type: binding; conditions: read-out: inhibition of kinase labeling
# MAP2K5 = MAP2K5 (Homo sapiens (Human), UniProt Q13163); type: binding; conditions: Lys2, A375 cells, read-out: inhibition of kinase labeling
# MAP2K7 = MAP2K7 (Homo sapiens (Human), UniProt O14733); type: binding; conditions: Lys2, A375 cells, read-out: inhibition of kinase labeling
# MAP3K4 = MAP3K4 (Homo sapiens (Human), UniProt Q9Y6R4); type: binding; conditions: Lys2, A375 cells, read-out: inhibition of kinase labeling
# MAP3K5 = MAP3K5 (Homo sapiens (Human), UniProt Q99683); type: binding; conditions: Lys2, A375 cells, read-out: inhibition of kinase labeling
# MAST3 = MAST3 (Homo sapiens (Human), UniProt O60307); type: binding; conditions: Lys2, A375 cells, read-out: inhibition of kinase labeling
# MASTL = MASTL (Homo sapiens (Human), UniProt Q96GX5); type: binding; conditions: Lys1, A375 cells, read-out: inhibition of kinase labeling
# MST4, YSK1 = type: binding, Homo sapiens; conditions: Lys2, 1 μM, A375 cells
# NDR1 = NDR1 (Homo sapiens (Human), UniProt Q15208); type: binding; conditions: Lys1, A375 cells, read-out: inhibition of kinase labeling
# p38a = p38a (Homo sapiens (Human), UniProt Q16539); type: binding; conditions: Protein Kinase Domain, A375 cells, read-out: inhibition of kinase labeling
# PFTAIRE1 = PFTAIRE1 (Homo sapiens (Human), UniProt O94921); type: binding; conditions: Lys1, A375 cells, read-out: inhibition of kinase labeling
# PKD3 = PKD3 (Homo sapiens (Human), UniProt O94806); type: binding; conditions: Lys2, A375 cells, read-out: inhibition of kinase labeling
# PLK1 = PLK1 (Homo sapiens (Human), UniProt P53350); type: binding; conditions: Lys1, A375 cells, read-out: inhibition of kinase labeling
# ROCK1, ROCK2 = type: binding, Homo sapiens; conditions: Lys2, 1 μM, A375 cells
# RSK2 domain1 = RSK2 domain1 (Homo sapiens (Human), UniProt P51812); type: binding; conditions: Lys2, A375 cells, read-out: inhibition of kinase labeling
# RSK2 domain2 = RSK2 domain2 (Homo sapiens (Human), UniProt P51812); type: binding; conditions: Lys2, A375 cells, read-out: inhibition of kinase labeling
# SLK = SLK (Homo sapiens (Human), UniProt Q9H2G2); type: binding; conditions: Lys2, A375 cells, read-out: inhibition of kinase labeling
# SYK = SYK (Homo sapiens (Human), UniProt P43405); type: binding; conditions: read-out: inhibition of kinase labeling
# TAO1, TAO3 = type: binding, Homo sapiens; conditions: Lys2, 1 μM, A375 cells
# TAO2 = TAO2 (Homo sapiens (Human), UniProt Q9UL54); type: binding; conditions: Lys2, A375 cells, read-out: inhibition of kinase labeling
# TEC = TEC (Homo sapiens (Human), UniProt P42680); type: binding; conditions: Activation Loop, A375 cells, read-out: inhibition of kinase labeling
# TLK1 = TLK1 (Homo sapiens (Human), UniProt Q9UKI8); type: binding; conditions: Lys2, A375 cells, read-out: inhibition of kinase labeling
# ZAK = ZAK (Homo sapiens (Human), UniProt Q9NYL2); type: binding
# Sequence of ZAK (Q9NYL2 whole entry): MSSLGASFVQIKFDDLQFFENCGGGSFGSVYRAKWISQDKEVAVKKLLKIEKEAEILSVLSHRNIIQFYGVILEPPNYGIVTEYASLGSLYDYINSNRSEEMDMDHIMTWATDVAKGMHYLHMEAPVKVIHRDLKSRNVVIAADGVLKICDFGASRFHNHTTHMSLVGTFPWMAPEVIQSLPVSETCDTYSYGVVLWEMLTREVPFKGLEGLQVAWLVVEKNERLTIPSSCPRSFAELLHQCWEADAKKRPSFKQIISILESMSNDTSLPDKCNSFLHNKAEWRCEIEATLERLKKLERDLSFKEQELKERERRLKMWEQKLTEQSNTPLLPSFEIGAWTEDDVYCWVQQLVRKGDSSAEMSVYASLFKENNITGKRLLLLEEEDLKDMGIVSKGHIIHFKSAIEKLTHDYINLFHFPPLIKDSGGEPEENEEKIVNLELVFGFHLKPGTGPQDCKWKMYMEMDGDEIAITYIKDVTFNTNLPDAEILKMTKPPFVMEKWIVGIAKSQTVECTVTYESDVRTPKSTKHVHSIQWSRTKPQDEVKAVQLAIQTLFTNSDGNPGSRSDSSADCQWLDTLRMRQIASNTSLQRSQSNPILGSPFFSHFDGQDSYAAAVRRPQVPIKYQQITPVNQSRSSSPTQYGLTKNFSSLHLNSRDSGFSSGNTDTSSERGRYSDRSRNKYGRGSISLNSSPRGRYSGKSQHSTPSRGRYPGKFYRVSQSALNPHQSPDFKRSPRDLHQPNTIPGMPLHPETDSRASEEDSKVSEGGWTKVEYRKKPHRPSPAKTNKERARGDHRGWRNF
# Sequence of LYN (P07948 whole entry): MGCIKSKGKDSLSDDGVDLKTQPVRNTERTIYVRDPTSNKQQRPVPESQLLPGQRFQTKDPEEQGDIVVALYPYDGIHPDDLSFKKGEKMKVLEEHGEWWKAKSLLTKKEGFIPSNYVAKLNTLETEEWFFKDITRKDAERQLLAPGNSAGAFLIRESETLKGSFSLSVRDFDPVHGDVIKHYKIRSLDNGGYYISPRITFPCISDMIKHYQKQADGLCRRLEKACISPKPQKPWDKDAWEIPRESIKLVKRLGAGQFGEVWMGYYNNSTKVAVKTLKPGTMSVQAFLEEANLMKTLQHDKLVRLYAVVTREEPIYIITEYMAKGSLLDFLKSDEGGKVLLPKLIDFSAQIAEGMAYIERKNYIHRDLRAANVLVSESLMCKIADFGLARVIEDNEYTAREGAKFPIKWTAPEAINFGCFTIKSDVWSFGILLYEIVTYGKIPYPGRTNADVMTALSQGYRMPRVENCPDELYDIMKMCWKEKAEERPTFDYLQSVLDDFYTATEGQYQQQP
# Sequence of GSK3B (P49841 whole entry): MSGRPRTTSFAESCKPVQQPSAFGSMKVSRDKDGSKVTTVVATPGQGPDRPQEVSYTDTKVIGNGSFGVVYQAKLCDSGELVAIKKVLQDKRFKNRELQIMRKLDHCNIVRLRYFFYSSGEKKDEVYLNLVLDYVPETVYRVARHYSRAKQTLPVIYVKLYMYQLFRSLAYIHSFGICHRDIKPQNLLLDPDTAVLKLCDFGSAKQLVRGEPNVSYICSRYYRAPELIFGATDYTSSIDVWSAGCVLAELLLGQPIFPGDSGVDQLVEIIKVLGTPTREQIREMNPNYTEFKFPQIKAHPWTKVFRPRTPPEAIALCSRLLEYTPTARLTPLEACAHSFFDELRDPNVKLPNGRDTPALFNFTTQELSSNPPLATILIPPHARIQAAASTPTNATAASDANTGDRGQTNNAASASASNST
# Sequence of BRAF (P15056 whole entry V600E): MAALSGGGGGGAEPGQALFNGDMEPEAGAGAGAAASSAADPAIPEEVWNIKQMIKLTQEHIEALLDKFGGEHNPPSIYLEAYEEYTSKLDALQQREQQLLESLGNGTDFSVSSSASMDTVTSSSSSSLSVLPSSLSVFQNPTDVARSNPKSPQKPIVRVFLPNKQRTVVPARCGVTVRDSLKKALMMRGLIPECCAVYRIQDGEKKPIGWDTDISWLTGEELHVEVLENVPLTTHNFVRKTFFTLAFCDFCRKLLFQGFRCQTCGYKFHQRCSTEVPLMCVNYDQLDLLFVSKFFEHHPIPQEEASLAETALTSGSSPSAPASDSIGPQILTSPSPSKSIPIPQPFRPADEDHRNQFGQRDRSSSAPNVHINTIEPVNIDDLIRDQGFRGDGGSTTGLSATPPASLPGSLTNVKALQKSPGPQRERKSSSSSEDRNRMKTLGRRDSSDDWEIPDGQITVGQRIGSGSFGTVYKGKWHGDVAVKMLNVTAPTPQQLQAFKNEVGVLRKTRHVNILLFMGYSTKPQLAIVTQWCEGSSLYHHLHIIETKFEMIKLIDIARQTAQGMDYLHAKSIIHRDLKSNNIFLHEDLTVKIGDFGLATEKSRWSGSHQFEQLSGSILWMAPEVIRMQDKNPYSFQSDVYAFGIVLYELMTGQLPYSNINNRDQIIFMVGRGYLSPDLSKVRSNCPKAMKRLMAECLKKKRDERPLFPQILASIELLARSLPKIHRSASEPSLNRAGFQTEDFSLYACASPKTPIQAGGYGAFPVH
# Sequence of GCK (Q12851 whole entry): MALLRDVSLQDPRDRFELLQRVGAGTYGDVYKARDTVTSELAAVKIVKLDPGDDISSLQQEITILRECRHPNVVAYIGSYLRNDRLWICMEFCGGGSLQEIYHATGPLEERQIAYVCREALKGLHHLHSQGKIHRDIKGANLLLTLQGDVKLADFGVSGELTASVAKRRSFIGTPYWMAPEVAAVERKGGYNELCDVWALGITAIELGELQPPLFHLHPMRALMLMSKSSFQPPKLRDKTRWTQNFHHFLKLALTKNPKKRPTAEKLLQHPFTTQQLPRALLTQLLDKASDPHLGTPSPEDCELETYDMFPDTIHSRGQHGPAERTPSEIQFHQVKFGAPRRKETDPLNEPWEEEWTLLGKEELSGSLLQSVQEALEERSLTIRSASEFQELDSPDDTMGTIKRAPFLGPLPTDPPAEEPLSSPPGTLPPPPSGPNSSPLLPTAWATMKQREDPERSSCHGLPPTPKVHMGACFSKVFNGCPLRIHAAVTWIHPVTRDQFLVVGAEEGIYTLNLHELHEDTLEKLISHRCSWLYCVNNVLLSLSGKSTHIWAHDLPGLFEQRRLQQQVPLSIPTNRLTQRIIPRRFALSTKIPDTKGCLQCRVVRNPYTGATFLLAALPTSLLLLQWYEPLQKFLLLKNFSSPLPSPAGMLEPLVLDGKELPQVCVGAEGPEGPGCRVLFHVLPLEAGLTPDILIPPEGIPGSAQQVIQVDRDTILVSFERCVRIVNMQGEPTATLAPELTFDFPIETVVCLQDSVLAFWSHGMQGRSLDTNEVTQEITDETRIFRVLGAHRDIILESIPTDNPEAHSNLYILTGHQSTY
# Sequence of MAST3 (O60307 whole entry): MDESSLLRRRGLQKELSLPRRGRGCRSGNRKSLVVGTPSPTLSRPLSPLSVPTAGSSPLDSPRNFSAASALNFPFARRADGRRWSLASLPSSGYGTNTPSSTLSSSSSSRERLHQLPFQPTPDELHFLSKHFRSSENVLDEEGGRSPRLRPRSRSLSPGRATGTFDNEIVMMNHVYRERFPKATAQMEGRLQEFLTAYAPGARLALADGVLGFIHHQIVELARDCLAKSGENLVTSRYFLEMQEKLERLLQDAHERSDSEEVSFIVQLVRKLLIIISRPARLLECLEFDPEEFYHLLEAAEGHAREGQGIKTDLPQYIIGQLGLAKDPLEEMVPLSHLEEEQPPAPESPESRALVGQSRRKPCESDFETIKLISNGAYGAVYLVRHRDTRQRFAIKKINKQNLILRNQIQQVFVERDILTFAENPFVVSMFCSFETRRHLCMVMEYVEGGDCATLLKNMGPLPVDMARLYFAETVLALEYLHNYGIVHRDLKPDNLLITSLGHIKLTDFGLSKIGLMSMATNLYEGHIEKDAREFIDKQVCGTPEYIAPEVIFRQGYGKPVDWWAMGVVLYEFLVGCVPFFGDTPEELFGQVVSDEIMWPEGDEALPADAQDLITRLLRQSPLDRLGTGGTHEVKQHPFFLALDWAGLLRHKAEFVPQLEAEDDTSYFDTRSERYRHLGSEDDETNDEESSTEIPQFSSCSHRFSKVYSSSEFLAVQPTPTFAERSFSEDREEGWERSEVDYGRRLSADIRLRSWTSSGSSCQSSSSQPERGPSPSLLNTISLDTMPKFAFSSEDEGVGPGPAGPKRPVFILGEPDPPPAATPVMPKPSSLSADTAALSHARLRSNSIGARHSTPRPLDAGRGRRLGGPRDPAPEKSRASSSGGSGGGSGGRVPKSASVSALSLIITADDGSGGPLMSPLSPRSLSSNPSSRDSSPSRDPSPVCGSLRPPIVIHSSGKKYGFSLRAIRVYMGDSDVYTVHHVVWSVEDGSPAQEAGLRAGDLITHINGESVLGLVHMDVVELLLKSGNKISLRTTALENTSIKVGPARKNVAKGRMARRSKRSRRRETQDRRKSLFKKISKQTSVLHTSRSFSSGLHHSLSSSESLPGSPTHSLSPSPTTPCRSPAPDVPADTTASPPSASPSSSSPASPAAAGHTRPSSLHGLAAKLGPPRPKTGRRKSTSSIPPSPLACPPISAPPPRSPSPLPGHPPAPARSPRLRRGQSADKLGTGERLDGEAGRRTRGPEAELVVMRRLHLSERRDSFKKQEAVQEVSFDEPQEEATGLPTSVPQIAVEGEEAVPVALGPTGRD
# Sequence of p38a (Q16539 whole entry, the tested form may be a part): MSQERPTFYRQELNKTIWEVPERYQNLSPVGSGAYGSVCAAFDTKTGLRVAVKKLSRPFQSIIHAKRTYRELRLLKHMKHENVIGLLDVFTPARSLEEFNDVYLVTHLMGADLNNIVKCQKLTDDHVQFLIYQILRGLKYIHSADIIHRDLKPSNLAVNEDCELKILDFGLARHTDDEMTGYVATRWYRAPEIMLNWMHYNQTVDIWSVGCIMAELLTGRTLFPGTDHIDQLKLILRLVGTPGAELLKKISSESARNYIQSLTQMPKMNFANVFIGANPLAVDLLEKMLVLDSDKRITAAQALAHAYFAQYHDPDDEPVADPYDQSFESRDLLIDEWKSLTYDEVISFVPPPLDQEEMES
compound,measurement,setting,value
"Cc1ccc(C(=O)Nc2cccc(C(C)(C)C#N)c2)cc1NC(=O)c1cncc(-c2cccs2)c1 [I-6, N-(5-((3-(2-cyanopropan-2-yl)phenyl)carbamoyl)-2-methylphenyl)-5-(thiophen-2-yl)nicotinamide]",inhibition at 1 µM,ACK,-1.2%
same,inhibition at 1 µM,BLK,68.8%
same,inhibition at 1 µM,BRAF,-20.3%
same,inhibition of kinase labeling,"CDK11, CDK8",20.7%
same,inhibition at 1 µM,CK1a,25.1%
same,inhibition at 1 µM,CK1g1,14.4%
same,inhibition at 1 µM,DNAPK,4.6%
same,inhibition at 1 µM,FER,-9.6%
same,inhibition of kinase labeling,"FYN, SRC, YES",55.7%
same,inhibition at 1 µM,GCK,21.9%
same,inhibition at 1 µM,GSK3B,15.9%
same,inhibition at 1 µM,IKKe,3.8%
same,inhibition of kinase labeling,"IKKe, TBK1",24.8%
same,inhibition at 1 µM,ILK,17.2%
same,inhibition at 1 µM,JAK1 domain2,3.3%
same,inhibition of kinase labeling,"JNK1, JNK2, JNK3",11.7%
same,inhibition at 1 µM,LCK,82.1%
same,inhibition at 1 µM,"LYN; Activation Loop, A375 cells",68.5%
same,inhibition at 1 µM,"LYN; Lys1, A375 cells",87.6%
same,inhibition at 1 µM,MAP2K5,28.7%
same,inhibition at 1 µM,MAP2K7,-3%
same,inhibition at 1 µM,MAP3K4,6.5%
same,inhibition at 1 µM,MAP3K5,16.2%
same,inhibition at 1 µM,MAST3,18.9%
same,inhibition at 1 µM,MASTL,-3.7%
same,inhibition of kinase labeling,"MST4, YSK1",22%
same,inhibition at 1 µM,NDR1,-10.5%
same,inhibition at 1 µM,p38a,85.1%
same,inhibition at 1 µM,PFTAIRE1,-31.3%
same,inhibition at 1 µM,PKD3,-4.5%
same,inhibition at 1 µM,PLK1,-5.4%
same,inhibition of kinase labeling,"ROCK1, ROCK2",12.7%
same,inhibition at 1 µM,RSK2 domain1,5%
same,inhibition at 1 µM,RSK2 domain2,-15.8%
same,inhibition at 1 µM,SLK,-19.5%
same,inhibition at 1 µM,"SYK; Activation Loop, A375 cells",-7.9%
same,inhibition at 1 µM,"SYK; Lys1, A375 cells",-38.5%
same,inhibition of kinase labeling,"TAO1, TAO3",11.9%
same,inhibition at 1 µM,TAO2,33.4%
same,inhibition at 1 µM,TEC,-28.9%
same,inhibition at 1 µM,TLK1,3.9%
same,inhibition of kinase labeling,"ZAK; Lys1, 1 μM, A375 cells",>95%
same,inhibition at 1 µM,"ZAK; Lys1, A375 cells, read-out: inhibition of kinase labeling",> 95%
